Reference: the supplement of paper PMC4862054

Key:
Settings in all cases: 72 h
BT-549 [1] = test system: BT-549
Summary of the method: (§1)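 For viability and cell death testing, 384-well plates carried compound at 5 concentrations in 10-fold steps over a compound-specific 10,000-fold range, and breast cancer cell lines were seeded in 20 µl suspension. After 72 h incubation, cell death was read by CellTox Green fluorescence (485/520 nm) before viability was read by CellTiter-Glo luminescence. EC50 was fitted from the dose-response curves and censored at the top concentration. Normalisation on each plate was to 0.1 % DMSO and a positive kill control.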

CAL-120 [2] = test system: CAL-120
Summary of the method: as §1

CAL-148 [3] = test system: CAL-148
Summary of the method: as §1

CAL-85-1 [4] = test system: CAL-85-1
Summary of the method: as §1

DU-4475 [5] = test system: DU-4475
Summary of the method: as §1

HCC1143 [6] = test system: HCC1143
Summary of the method: as §1

HCC1599 [7] = test system: HCC1599
Summary of the method: as §1

HCC1937 [8] = test system: HCC1937
Summary of the method: as §1

HDQ-P1 [9] = test system: HDQ-P1
Summary of the method: as §1

Hs578T [10] = test system: Hs578T
Summary of the method: as §1

MCF-10A [11] = test system: MCF-10A
Summary of the method: as §1

MDA-MB-231 [12] = test system: MDA-MB-231
Summary of the method: as §1

MDA-MB-436 [13] = test system: MDA-MB-436
Summary of the method: as §1

MDA-MB-453 = test system: MDA-MB-453
Summary of the method: as §1

MFM-223 [14] = test system: MFM-223
Summary of the method: as §1

SK-BR-3 [15] = test system: SK-BR-3
Summary of the method: as §1

CAL-51 [16] = test system: CAL-51
Summary of the method: (§2)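 To measure viability, fluorescence at 560/590 nm was read after 2.5 µl CellTiter-Blue had been added for 2 h at 37 °C. Cells from breast cancer lines had been seeded in 20 µl suspension onto 384-well plates pre-loaded with compound dissolved in 5 µl medium and kept for 72 h. EC50 comes from a fitted percent-inhibition dose-response curve censored at the highest concentration, after per-plate normalisation to vehicle and a positive kill control, Z'-factor checks, and removal of rows with zero drug sensitivity score.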

CAL-85-1 [17] = test system: CAL-85-1; remark: listed apart in the source
Summary of the method: as §2

DU-4475 [18] = test system: DU-4475; remark: listed apart in the source
Summary of the method: as §2

HDQ-P1 [19] = test system: HDQ-P1; remark: listed apart in the source
Summary of the method: as §2

BT-474 [20] = test system: BT-474
Summary of the method: as §2

BT-549 [21] = test system: BT-549; remark: listed apart in the source
Summary of the method: as §2

HCC1143 [22] = test system: HCC1143; remark: listed apart in the source
Summary of the method: as §2

HCC1599 [23] = test system: HCC1599; remark: listed apart in the source
Summary of the method: as §2

Hs578T [24] = test system: Hs578T; remark: listed apart in the source
Summary of the method: as §2

MDA-MB-436 [25] = test system: MDA-MB-436; remark: listed apart in the source
Summary of the method: as §2

MDA-MB-468 [26] = test system: MDA-MB-468
Summary of the method: as §2

MFM-223 [27] = test system: MFM-223; remark: listed apart in the source
Summary of the method: as §2

SK-BR-3 [28] = test system: SK-BR-3; remark: listed apart in the source
Summary of the method: as §2

BT-474 [29] = test system: BT-474; remark: listed apart in the source
Experimental: (§3)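 Drug sensitivity and resistance testing (DSRT) of breast cancer cell lines in 384-well plates, 5 concentrations in 10-fold dilutions over a compound-specific 10,000-fold range. After 72 h, cytotoxicity was read by CellTox Green fluorescence and viability by CellTiter-Glo luminescence (multiplexed), normalised to DMSO and benzethonium chloride controls. EC50 is the inflection point of the fitted dose-response curve (bottom asymptote free, so it can be relative for partial curves) and is censored at the highest tested concentration. Rows with DSS 0 (no meaningful response) were excluded.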

CAL-120 [30] = test system: CAL-120; remark: listed apart in the source
Experimental: as §3

CAL-148 [31] = test system: CAL-148; remark: listed apart in the source
Experimental: as §3

CAL-51 [32] = test system: CAL-51; remark: listed apart in the source
Experimental: as §3

CAL-85-1 [33] = test system: CAL-85-1; remark: listed apart in the source
Experimental: as §3

DU-4475 [34] = test system: DU-4475; remark: listed apart in the source
Experimental: as §3

HCC1143 [35] = test system: HCC1143; remark: listed apart in the source
Experimental: as §3

HCC1937 [36] = test system: HCC1937; remark: listed apart in the source
Experimental: as §3

HDQ-P1 [37] = test system: HDQ-P1; remark: listed apart in the source
Experimental: as §3

Hs578T [38] = test system: Hs578T; remark: listed apart in the source
Experimental: as §3

MCF-10A [39] = test system: MCF-10A; remark: listed apart in the source
Experimental: as §3

MDA-MB-231 [40] = test system: MDA-MB-231; remark: listed apart in the source
Experimental: as §3

MDA-MB-468 [41] = test system: MDA-MB-468; remark: listed apart in the source
Experimental: as §3

In the case of CO[C@H]1/C=C\C=C(/C)C(=O)NC2=CC(=O)C(NCCN(C)C)=C(C[C@@H](C)C[C@H](OC)[C@H](O)[C@@H](C)/C=C(\C)[C@@H]1OC(N)=O)C2=O [Alvespimycin], the “EC50, CellTiter-Glo” value (BT-549 [1]) is reported as 8.13 nM, the “EC50, CellTiter-Glo” value (CAL-120 [2]) is reported as 46.2 nM and the “EC50, CellTiter-Glo” value (CAL-148 [3]) is reported as 38.7 nM. The “EC50, CellTiter-Glo” value (CAL-85-1 [4]) was 41.8 nM, the “EC50, CellTiter-Glo” value (DU-4475 [5]) was 34 nM and the “EC50, CellTiter-Glo” value (HCC1143 [6]) was 34.8 nM. The “EC50, CellTiter-Glo” value (HCC1599 [7]) was 91.5 nM, the “EC50, CellTiter-Glo” value (HCC1937 [8]) was 44.1 nM and the “EC50, CellTiter-Glo” value (HDQ-P1 [9]) was 30.2 nM. The “EC50, CellTiter-Glo” value (Hs578T [10]) was 45.7 nM, the “EC50, CellTiter-Glo” value (MCF-10A [11]) was 40.8 nM and the “EC50, CellTiter-Glo” value (MDA-MB-231 [12]) was 46.2 nM. For the same molecule, the “EC50, CellTiter-Glo” value (MDA-MB-436 [13]) was 11.3 nM, the “EC50, CellTiter-Glo” value (MDA-MB-453) was 19.8 nM and the “EC50, CellTiter-Glo” value (MFM-223 [14]) was 17.6 nM. For the same molecule, the “EC50, CellTiter-Glo” value (SK-BR-3 [15]) was 11 nM, the “EC50, CellTiter-Blue viability” value (CAL-51 [16]) was 53.3 nM and the “EC50, CellTiter-Blue viability” value (CAL-85-1 [17]) was 35.1 nM. For the same molecule, the “EC50, CellTiter-Blue viability” value (DU-4475 [18]) was 15.3 nM, the “EC50, CellTiter-Blue viability” value (HDQ-P1 [19]) was 22.6 nM and the “EC50, CellTiter-Blue viability” value (BT-474 [20]) was 22.9 nM. The “EC50, CellTiter-Blue viability” value (BT-549 [21]) was 6.08 nM, the “EC50, CellTiter-Blue viability” value (HCC1143 [22]) was 26.2 nM and the “EC50, CellTiter-Blue viability” value (HCC1599 [23]) was 17.4 nM. For the same molecule, the “EC50, CellTiter-Blue viability” value (Hs578T [24]) was 5.38 nM, the “EC50, CellTiter-Blue viability” value (MDA-MB-436 [25]) was 19.9 nM and the “EC50, CellTiter-Blue viability” value (MDA-MB-468 [26]) was 60.5 nM. The “EC50, CellTiter-Blue viability” value (MFM-223 [27]) was 8.78 nM, the “EC50, CellTiter-Blue viability” value (SK-BR-3 [28]) was 8.15 nM and the “EC50, CellTox Green” value (BT-474 [29]) was 77.3 nM. For the same molecule, the “EC50, CellTox Green” value (CAL-120 [30]) was greater than 1000 nM, the “EC50, CellTox Green” value (CAL-148 [31]) was 45 nM and the “EC50, CellTox Green” value (CAL-51 [32]) was 35.8 nM. For the same molecule, the “EC50, CellTox Green” value (CAL-85-1 [33]) was 187 nM, the “EC50, CellTox Green” value (DU-4475 [34]) was 26.6 nM and the “EC50, CellTox Green” value (HCC1143 [35]) was 138 nM. The “EC50, CellTox Green” value (HCC1937 [36]) was 781 nM, the “EC50, CellTox Green” value (HDQ-P1 [37]) was 12.2 nM and the “EC50, CellTox Green” value (Hs578T [38]) was 242 nM. The “EC50, CellTox Green” value (MCF-10A [39]) was 37.9 nM, the “EC50, CellTox Green” value (MDA-MB-231 [40]) was 171 nM and the “EC50, CellTox Green” value (MDA-MB-468 [41]) was 682 nM.
For COc1cc([C@@H]2c3cc4c(cc3[C@@H](O[C@@H]3O[C@@H]5CO[C@@H](C)O[C@H]5[C@H](O)[C@H]3O)[C@H]3COC(=O)[C@H]23)OCO4)cc(OC)c1O [Etoposide], the “EC50, CellTiter-Glo” value (BT-549 [1]) was 3990 nM, the “EC50, CellTiter-Glo” value (CAL-120 [2]) was 1550 nM and the “EC50, CellTiter-Glo” value (CAL-148 [3]) was 980 nM. For the same molecule, the “EC50, CellTiter-Glo” value (CAL-85-1 [4]) was 9970 nM, the “EC50, CellTiter-Glo” value (DU-4475 [5]) was 1260 nM and the “EC50, CellTiter-Glo” value (HCC1143 [6]) was 1650 nM. For the same molecule, the “EC50, CellTiter-Glo” value (HCC1599 [7]) was 1150 nM, the “EC50, CellTiter-Glo” value (Hs578T [10]) was 1490 nM and the “EC50, CellTiter-Glo” value (MDA-MB-231 [12]) was 1850 nM. For the same molecule, the “EC50, CellTiter-Glo” value (MDA-MB-436 [13]) was 977 nM, the “EC50, CellTiter-Glo” value (SK-BR-3 [15]) was 1210 nM and the “EC50, CellTiter-Blue viability” value (CAL-51 [16]) was 367 nM. The “EC50, CellTiter-Blue viability” value (CAL-85-1 [17]) was 2550 nM, the “EC50, CellTiter-Blue viability” value (DU-4475 [18]) was 180 nM and the “EC50, CellTiter-Blue viability” value (HDQ-P1 [19]) was 775 nM. For the same molecule, the “EC50, CellTiter-Blue viability” value (BT-549 [21]) was 224 nM, the “EC50, CellTiter-Blue viability” value (HCC1143 [22]) was 1600 nM and the “EC50, CellTiter-Blue viability” value (HCC1599 [23]) was 1700 nM. For the same molecule, the “EC50, CellTiter-Blue viability” value (Hs578T [24]) was 3040 nM, the “EC50, CellTiter-Blue viability” value (MDA-MB-436 [25]) was 2610 nM and the “EC50, CellTiter-Blue viability” value (MDA-MB-468 [26]) was 1810 nM. For the same molecule, the “EC50, CellTiter-Blue viability” value (SK-BR-3 [28]) was 785 nM, the “EC50, CellTox Green” value (CAL-120 [30]) was 3670 nM and the “EC50, CellTox Green” value (CAL-148 [31]) was 3020 nM. For the same molecule, the “EC50, CellTox Green” value (CAL-51 [32]) was 624 nM, the “EC50, CellTox Green” value (CAL-85-1 [33]) was 7710 nM and the “EC50, CellTox Green” value (DU-4475 [34]) was 3830 nM. The “EC50, CellTox Green” value (Hs578T [38]) was 55.8 nM and the “EC50, CellTox Green” value (MDA-MB-468 [41]) was 2330 nM.
